Series [1] concerns RAW264.7. The series can be described thus: Inhibition of NF-kappaB transcriptional activity expressed in mouse RAW264.7 cells assessed as inhibition of LPS-induced secretory alkaline phosphatase expression at 10 uM treated 2 hrs before LPS challenge measured after 18 hrs. In kind it is cell-based.
Series [2] deals with RAW264.7. The series can be described thus: Inhibition of NF-kappaB transcriptional activity expressed in mouse RAW264.7 cells assessed as inhibition of LPS-induced secretory alkaline phosphatase expression treated 2 hrs before LPS challenge measured after 18 hrs. In kind it is cell-based.
Series [3] deals with RAW264.7. Nature of the series: Cytotoxicity against mouse RAW264.7 cells assessed as cell viability up to 50 uM after 24 hrs by MTT assay. Format: cell-based. The settings on record: raw264.7, 24 h. On the technique in general: Tetrazolium dyes change colour on reduction, which living cells bring about.
The subject of series [4] is RAW264.7. The series can be described thus: Antiinflammatory activity in mouse RAW264.7 cells assessed as inhibition of LPS-induced nitric oxide production treated 2 hrs before LPS challenge measured after 18 hrs by Griess reaction method. Format: functional, cell-based. For orientation: Griess reagent forms a coloured azo dye with nitrite.
Series [5] concerns RAW264.7. The series can be described thus: Antiinflammatory activity in mouse RAW264.7 cells assessed as inhibition of LPS-induced iNOS expression treated 2 hrs before LPS challenge measured after 18 hrs by Western blotting. In kind it is functional, cell-based. (In general: In western blotting, separated proteins are transferred to a membrane and probed.)
Series [6] concerns RAW264.7. The series can be described thus: Antiinflammatory activity in mouse RAW264.7 cells assessed as inhibition of LPS-induced COX2 expression treated 2 hrs before LPS challenge measured after 18 hrs by Western blotting. Format: functional, cell-based.
Series [7] concerns RAW264.7. Nature of the series: Inhibition of NF-kappaB transcriptional activity expressed in mouse RAW264.7 cells assessed as inhibition of LPS-induced secretory alkaline phosphatase expression at 5 uM treated 2 hrs before LPS challenge measured after 18 hrs. In kind it is cell-based.
Series [8] relates to RAW264.7. Nature of the series: Inhibition of NF-kappaB transcriptional activity expressed in mouse RAW264.7 cells assessed as inhibition of LPS-induced secretory alkaline phosphatase expression at 15 uM treated 2 hrs before LPS challenge measured after 18 hrs. In kind it is cell-based.
For series [9], the system named is RAW264.7. Nature of the series: Inhibition of NF-kappaB transcriptional activity expressed in mouse RAW264.7 cells assessed as inhibition of LPS-induced secretory alkaline phosphatase expression at 25 uM treated 2 hrs before LPS challenge measured after 18 hrs. Format: cell-based.
Series [10] has as its system RAW264.7. Nature of the series: Inhibition of NF-kappaB transcriptional activity expressed in mouse RAW264.7 cells assessed as inhibition of LPS-induced secretory alkaline phosphatase expression at 50 uM treated 2 hrs before LPS challenge measured after 18 hrs. Format: cell-based.
In series [11] the test system is RAW264.7. Nature of the series: Inhibition of NF-kappaB activation in mouse RAW264.7 cells assessed as inhibition of LPS-induced IkappaBalpha phosphorylation at 50 uM treated 2 hrs before LPS challenge measured after 15 to 20 mins by Western blotting. Format: cell-based.
In series [12] the test system is RAW264.7. The series can be described thus: Inhibition of NF-kappaB activation in mouse RAW264.7 cells assessed as protection of LPS-induced IkappaBalpha degradation at 50 uM treated 2 hrs before LPS challenge measured after 10 to 20 mins by Western blotting. Format: cell-based.
Series [13] has as its system RAW264.7. The series can be described thus: Inhibition of LPS-induced NFkappaB/AP-1 DNA binding activity in mouse RAW264.7 cells treated 2 hrs before LPS challenge measured after 1 hr by electrophoretic mobility shift assay. Format: cell-based.
Series [14] has as its target T1, Nuclear factor NF-kappa-B p105 subunit (Mus musculus) (UniProt P25799).
T1 sequence (whole entry): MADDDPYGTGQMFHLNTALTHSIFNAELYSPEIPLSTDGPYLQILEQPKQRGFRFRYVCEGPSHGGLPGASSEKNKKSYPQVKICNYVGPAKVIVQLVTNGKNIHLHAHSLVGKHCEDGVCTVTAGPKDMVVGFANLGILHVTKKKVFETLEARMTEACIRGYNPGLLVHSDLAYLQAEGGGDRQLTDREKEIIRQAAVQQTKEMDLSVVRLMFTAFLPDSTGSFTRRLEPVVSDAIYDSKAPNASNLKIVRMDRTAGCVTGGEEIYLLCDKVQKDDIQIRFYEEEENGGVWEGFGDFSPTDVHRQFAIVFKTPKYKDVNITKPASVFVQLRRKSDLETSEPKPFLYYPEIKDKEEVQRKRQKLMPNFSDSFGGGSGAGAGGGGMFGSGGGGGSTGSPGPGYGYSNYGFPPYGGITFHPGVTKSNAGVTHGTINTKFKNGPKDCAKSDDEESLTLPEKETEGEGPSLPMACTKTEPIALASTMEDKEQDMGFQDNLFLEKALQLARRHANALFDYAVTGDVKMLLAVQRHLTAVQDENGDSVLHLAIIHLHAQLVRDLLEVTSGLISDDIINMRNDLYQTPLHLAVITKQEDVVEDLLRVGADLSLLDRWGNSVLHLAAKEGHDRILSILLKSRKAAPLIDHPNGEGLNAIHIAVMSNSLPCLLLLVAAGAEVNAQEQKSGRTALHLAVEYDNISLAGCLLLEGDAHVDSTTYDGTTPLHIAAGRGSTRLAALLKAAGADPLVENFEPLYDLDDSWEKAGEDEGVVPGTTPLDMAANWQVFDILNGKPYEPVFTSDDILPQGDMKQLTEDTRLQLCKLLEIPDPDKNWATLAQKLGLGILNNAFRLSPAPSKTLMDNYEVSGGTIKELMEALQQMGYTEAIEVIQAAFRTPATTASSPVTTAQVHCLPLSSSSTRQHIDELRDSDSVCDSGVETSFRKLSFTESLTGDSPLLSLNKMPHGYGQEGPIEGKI
Nature of the series: Inhibition of LPS-induced NF-kappaB p50 nuclear translocation in mouse RAW264.7 cells treated 2 hrs before LPS challenge measured up to 1 hr Western blot analysis. Format: cell-based.

The target of series [15] is Transcription factor p65 (Mus musculus) (UniProt Q04207). The series can be described thus: Inhibition of LPS-induced NF-kappaB p65 nuclear translocation in mouse RAW264.7 cells treated 2 hrs before LPS challenge measured up to 1 hr Western blot analysis. Format: cell-based.
Series [16] concerns RAW264.7. The series can be described thus: Antiinflammatory activity in mouse RAW264.7 cells assessed as inhibition of LPS-induced TNFalpha by ELISA. In kind it is functional, cell-based.
For series [17], the system named is RAW264.7. The series can be described thus: Inhibition of LPS-induced Akt phosphorylation in mouse RAW264.7 cells treated 2 hrs before LPS challenge measured after 15 to 30 mins by Western blot analysis. Format: cell-based.
Series [18] has as its system RAW264.7. Nature of the series: Inhibition of LPS-induced NF-kappaB activation in mouse RAW264.7 cells assessed as inhibition p38alpha/beta phosphorylation at 50 uM treated 2 hrs before LPS challenge measured after 30 mins by Western blot analysis. In kind it is cell-based.
Series [19] has as its system RAW264.7. The series can be described thus: Inhibition of LPS-induced NF-kappaB activation in mouse RAW264.7 cells assessed as inhibition JNK phosphorylation at 50 uM treated 2 hrs before LPS challenge measured after 30 mins by Western blot analysis. In kind it is cell-based.
The test system of series [20] is RAW264.7. The series can be described thus: Inhibition of LPS-induced NF-kappaB activation in mouse RAW264.7 cells assessed as inhibition ERK phosphorylation at 50 uM treated 2 hrs before LPS challenge measured after 10 to 30 mins by Western blot analysis. Format: cell-based.

In ChEMBL document CHEMBL1949641, “Anti-inflammatory mechanism of 15,16-epoxy-3α-hydroxylabda-8,13(16),14-trien-7-one via inhibition of LPS-induced multicellular signaling pathways” (J Nat Prod, 2012) one finds inhibition, Activity and IC50 data, which are given here for 2 compounds.

The source made the active and inactive calls. The calls are words filed in the database; no cut-off is given here.

Transcription factor p65 (Mus musculus), sequence (Q04207 whole entry): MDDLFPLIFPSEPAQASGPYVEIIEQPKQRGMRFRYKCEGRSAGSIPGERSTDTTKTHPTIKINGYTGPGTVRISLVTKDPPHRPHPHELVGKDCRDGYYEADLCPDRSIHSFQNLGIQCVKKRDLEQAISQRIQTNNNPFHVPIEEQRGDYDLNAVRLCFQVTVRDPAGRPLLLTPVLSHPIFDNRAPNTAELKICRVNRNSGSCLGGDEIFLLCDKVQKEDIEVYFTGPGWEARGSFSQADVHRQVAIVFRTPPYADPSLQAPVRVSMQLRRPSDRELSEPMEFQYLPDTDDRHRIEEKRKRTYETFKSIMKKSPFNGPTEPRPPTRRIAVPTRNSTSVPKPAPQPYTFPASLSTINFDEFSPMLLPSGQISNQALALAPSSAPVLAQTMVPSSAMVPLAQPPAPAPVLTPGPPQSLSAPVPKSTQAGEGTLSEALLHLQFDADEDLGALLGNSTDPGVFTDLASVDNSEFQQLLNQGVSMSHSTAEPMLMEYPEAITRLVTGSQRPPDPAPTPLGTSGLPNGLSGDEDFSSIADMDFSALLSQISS

What is called inhibition is how much of the control response was suppressed. As to `Cc1ccc(S(=O)(=O)N[C@@H](Cc2ccccc2)C(=O)CCl)cc1`, the inhibition entry in [1] is “Active”.

The IC50 is the concentration at which inhibition is half-maximal. Turning to `CC1=C(CCc2ccoc2)[C@@]2(C)CC[C@@H](O)C(C)(C)[C@@H]2CC1=O`, the inhibition result in series [2] was “Dose-dependent effect”; in series [5], “Dose-dependent effect”; in series [6], “Dose-dependent effect”; in series [7], 20.9%; in series [8], 56.6%; in series [9], 69.1%. Further, the inhibition was 90.3% in [10], “Dose-dependent effect” in series [13], “Dose-dependent effect” in [14] and “Dose-dependent effect” in series [15]. Further, the Activity result in [3] is recorded as “Non-toxic”. The IC50 in [4] worked out at 27 µM; in series [16], 38.5 µM. Besides, the inhibition result in series [11], in [17], in series [18], in series [19] and in [20] was “Active” throughout. The result in series [12] was Active.
